Experimental data taken from BindingDB's records for doi:10.1016/j.bmc.2021.116220 (University of Colorado Anschutz Medical Campus, 2021).

assay: Inhibition of RSK2 in human MOLM-13 assessed as reduction in cell viability measured after 72 hrs by MTS assay

`CC(C)CCn1cnc2cnc(Nc3cc(F)c(O)c(F)c3)nc21` and `CC(C)CCn1ccc2cnc(Nc3cc(F)c(O)c(F)c3)nc21` are within 1.5-fold of each other in EC50: 970 nM for the first, 1300 nM for the second.

Compared with `Oc1c(F)cc(Nc2ncc3ncn(-c4ccc(CCN5CCOCC5)cc4)c3n2)cc1F`, `COC(=O)CCCc1ccc(-n2cnc3cnc(Nc4cc(F)c(O)c(F)c4)nc32)cc1` is 7.3-fold higher in EC50: 1900 nM for the first, 13900 nM for the second. The first is the more potent here.

Compared with `Oc1c(F)cc(Nc2ncc3ccn(-c4ccc(N5CCOCC5)cc4)c3n2)cc1F`, `CN1CCN(c2ccc(-n3ccc4cnc(Nc5cc(F)c(O)c(F)c5)nc43)cc2)CC1` is 3.3-fold lower in EC50: 230 nM for the first, 70 nM for the second.
